From ChEMBL document CHEMBL4024705 (Bioorg Med Chem Lett, 2017)

Columns and labels:
[1] = test system: Liver; test: Stability of the compound in rat liver microsomes assessed as compound remaining; type: ADME, microsome
[2] = test system: Liver; test: Stability of the compound in human liver microsomes assessed as compound remaining; type: ADME, microsome
[3] = test system: Liver; test: Stability of the compound in mouse liver microsomes assessed as compound remaining; type: ADME, microsome
[4] = Permeability of the compound by PAMPA; type: physicochemical; details: read-out: permeability

Stability [1] [%]	Stability [2] [%]	Stability [3] [%]	Papp [4] [×10⁻⁶ cm/s]	SMILES
34 to 37	83 to 87	0 to 28	–	[2H]C([2H])([2H])C1([2H])N(c2cc(-c3cc(Cl)c4c(N)ncnn34)ccc2C#N)C(=O)C(C)(C)OC1([2H])[2H] (centres undefined)
75	91	74	–	[2H]C1([2H])OC(C)(C)C(=O)N(c2cc(-c3cc(C(F)(F)F)c4c(N)ncnn34)ccc2C#N)C1([2H])[2H]
1	23	1	–	C[C@H]1COC(C)(C)C(=O)N1c1cc(-c2cc(C(F)(F)F)c3c(N)ncnn23)ccc1C#N
32 to 44	77 to 91	0 to 18	–	[2H]C([2H])([2H])C1([2H])N(c2cc(-c3cc(C(F)(F)F)c4c(N)ncnn34)ccc2C#N)C(=O)C(C)(C)OC1([2H])[2H] (centres undefined)

Second part, the molecule before the results:

SMILES	Stability [1] [%]	Stability [2] [%]	Stability [3] [%]	Papp [4] [×10⁻⁶ cm/s]
CC[C@H]1COC(C)(C)C(=O)N1c1cc(-c2cc(Cl)c3c(N)ncnn23)ccc1C#N	4	53	1	–
C[C@@H]1COC(C)(C)C(=O)N1c1cc(-c2cc(Cl)c3c(N)ncnn23)ccc1C#N	25	92	28	–
C[C@H]1CN(c2cc(-c3cc(C(F)(F)F)c4c(N)ncnn34)ccc2C#N)C(=O)C(C)(C)O1	29	85	24	–
C[C@H]1OC(C)(C)C(=O)N(c2cc(-c3cc(C(F)(F)F)c4c(N)ncnn34)ccc2C#N)[C@H]1C	2	50	4	65.9
[2H]C1([2H])OC(C)(C)C(=O)N(c2cc(-c3cc(Cl)c4c(N)ncnn34)ccc2C#N)C1([2H])[2H]	76	94	58	–
C[C@@H]1CN(c2cc(-c3cc(Cl)c4c(N)ncnn34)ccc2C#N)C(=O)C(C)(C)O1	5	61	43	–
C[C@H]1CN(c2cc(-c3cc(Cl)c4c(N)ncnn34)ccc2C#N)C(=O)C(C)(C)O1	0	18	0	–
